The subject of this assay is A/Weiss/43 (H1N1) oseltamivir-resistant strain. Briefly: Antiviral CPE assay in MDCK, other influenza strains. The class given is cell-based, influenza A virus (IAV). As to conditions: Influenza A virus.
As a reminder, the EC50 is the midpoint of the concentration-response curve. Low readings indicate greater potency, high ones weaker potency. Regarding `COC(=O)OCOc1c2n(ccc1=O)N([C@@H]1c3ccccc3SCc3c1ccc(F)c3F)[C@@H]1COC3(CC3)CN1C2=O` [Compound M42, reference compound], it took 2.11 ± 0.72 nM to reach a half-maximal effect (EC50).
`[2H]C([2H])([2H])OC(=O)OCOc1c2n(ccc1=O)N([C@@H]1c3ccccc3[Se]Cc3c1ccc(F)c3F)[C@@H]1COC3(CC3)CN1C2=O` [DS1833] returned an EC50 of 1.16 ± 0.37 nM.
`[2H]C([2H])([2H])OC(=O)OCOc1c2n(ccc1=O)N([C@@H]1c3ccccc3SCc3c1ccc(F)c3F)[C@@H]1COC3(CC3)CN1C2=O` [DS1837]: it took 1.45 ± 0.55 nM to reach a half-maximal effect (EC50).
In the case of `O=C1c2c(OCOP(=O)(O)O)c(=O)ccn2N([C@@H]2c3ccccc3[Se]Cc3c2ccc(F)c3F)[C@@H]2COC3(CC3)CN12` [DS14915] it was 1.33 ± 0.22 nM.
The result for `NC(=O)c1ncn([C@@H]2O[C@H](CO)[C@@H](O)[C@H]2O)n1` [Ribavirin, reference compound] reads 30300 ± 4080 nM.

The record behind these values is patent US20260102418A1, “An anti-influenza virus derivative and uses thereof” (Shijiazhuang Discovery Medicine Technology Co., Ltd., priority 2022, published 2026).
